Test results from patent US20060165670A1, “Synbiotic combination” (priority 2003, published 2006).

Experiments:
Lactobacilli = assay: Continuous culture chemostat with faecal inocula and antimicrobials; assay type: cell-based; details: 1 gl^−1 in medium
Experimental: (§1) (i) Continuous culture system: Three chemostats are set up in a parallel; each is maintained under nitrogen gas, at 37° C., pH 6.5 and a dilution rate of 0.066 h^−1. These conditions are set to resemble conditions typically found in the distal region of the human colon. The chemostats are fed with a control growth medium which comprised (gl^−1 in distilled water): yeast extract 2, peptone water 2, NaCl 0.1, K2HPO4 0.04, KH2PO4 0.04, MgSO4.7H2O 0.01, CaCl2.H2O 0.01, NaHCO3 2, Tween 80 2, hemin 0.05, Vitamin K1 0.01, cysteine.HCl 0.5, bile salts 0.5, glucose 0.4, starch 3, pectin 2 and arabinogalactan 1. The medium is autoclaved at 121° C. for 30 min and, whilst still hot, placed under nitrogen gas. After the medium has cooled, 1 gl^−1 of filter sterilised tetracycline or 1 gl^−1 of filter sterilised nystatin is aseptically added to the medium reservoir. Control chemostats with no antimicrobials added are also run. […]
(§2) (iii) Microbial culture techniques: A sample is taken from each fecal slurry used as inocula and 1 ml samples are also removed from each chemostat when the fermentation system has reached steady state (after 164 h). […] After 24-48 h of Incubation aerobic colonies are counted and after 48-72 h of incubation anaerobic plates are enumerated. […]

yeasts = assay: as above; assay type: cell-based; details: 1 gl^−1 in medium, compared to control chemostats
Experimental: as §1, §2

Which effect on lactobacilli (Lactobacilli) does the source give for `C[C@@H]1[C@H](O)[C@@H](C)/C=C/C=C/CC/C=C/C=C/C=C/C=C/C(O[C@H]2O[C@H](C)[C@@H](O)[C@H](N)[C@@H]2O)CC2O[C@](O)(CC(O)C(O)CCC(O)CC(O)CC(O)CC(=O)O[C@H]1C)CC(O)C2C(=O)O` (some centres unmarked) [nystatin] here?
The effect on lactobacilli was “reduction in lactobacilli”.

And the effect on yeasts (yeasts)?
The effect on yeasts was “yeasts are inhibited”.
